{"source": "patent US12122774B2", "about": "“Compounds as MYT1 inhibitors” (WIGEN BIOMEDICINE TECHNOLOGY (SHANGHAI) CO., LTD., priority 2022, dated 2024)", "key": {"Recombinant MYT1 protein": {"molecular_target": "T1, Recombinant MYT1 protein (Homo sapiens, UniProt Q99640)", "T1 sequence (Q99640 1-499)": "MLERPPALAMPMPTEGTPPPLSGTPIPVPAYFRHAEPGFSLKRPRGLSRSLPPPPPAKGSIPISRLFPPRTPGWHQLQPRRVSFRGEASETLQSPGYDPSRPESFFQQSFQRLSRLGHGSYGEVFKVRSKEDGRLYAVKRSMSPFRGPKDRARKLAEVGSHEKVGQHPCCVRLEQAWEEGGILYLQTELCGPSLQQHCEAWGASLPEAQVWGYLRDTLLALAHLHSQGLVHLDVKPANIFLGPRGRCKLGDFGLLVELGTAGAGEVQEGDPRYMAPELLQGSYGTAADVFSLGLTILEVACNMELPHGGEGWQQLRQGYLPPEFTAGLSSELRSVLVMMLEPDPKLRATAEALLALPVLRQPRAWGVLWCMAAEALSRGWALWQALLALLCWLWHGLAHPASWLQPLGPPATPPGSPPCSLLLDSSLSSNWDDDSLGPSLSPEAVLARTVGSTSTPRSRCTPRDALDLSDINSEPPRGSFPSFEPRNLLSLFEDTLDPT", "assay": "In vitro assay for inhibiting MYT1 kinase activity (ADP-GLO)", "type": "biochemical", "details": "10 μM ATP, read-out: Inhibitory activity against recombinant protein MYT1 IC50", "description": "Recombinant MYT1 protein and the compounds were pre-incubated at room temperature for 15 min, and 10 μM ATP was then added to start the reaction. The mixture was incubated at room temperature for another 60 min, and the ADP-GLO reagent from Promega was then added. The resulting mixture was incubated in the dark for 40 min, a detection solution was then added, and the mixture was incubated for another 45-60 min. The chemiluminescence was determined using ENVISION. The inhibition rate and IC50 were calculated compared to the DMSO group."}, "MIA PaCa-2 cells": {"system": "MIA PaCa-2 cells", "assay": "In vitro anti-proliferative activity against MIA PaCa-2 cells (compound alone)", "type": "cell-based", "details": "intracellular ATP content", "description": "MIA PaCa-2 cells were seeded on a 384-well plate at 3000 cells/well. After overnight adherence culture, DMSO or the compounds serially diluted 1:5 from 10 µM were added. The viability was assessed 72 h after dosing by measuring the intracellular ATP content. The inhibition percentage of viable cells by the compounds was calculated by comparing with the DMSO group, and the IC50 value was calculated."}, "[1]": {"system": "MDCK cells (MDCK wild type)", "assay": "In vitro permeability experiment, MDCK wild type", "details": "MDCK-Wild type, 5 μM, 90 min", "description": "(§1) In vitro passive permeability or the ability to serve as a P-glycoprotein (P-gp) transport substrate was tested using MDCK cells (MDCK wild type) or MDCK cells stably transduced with MDR1 (MDCK-MDR1), respectively. The permeability experiment was performed in duplicate in a transwell system at a single concentration (5 μM). The cells were incubated for 90 min. Apical-to-basolateral (A to B, A-B) transport and basolateral-to-apical (B to A, B-A) transport of the corresponding compound were determined, and the permeation rate (apparent permeability) (Papp×10^−6 cm/sec) and efflux ratio (Papp (B-A)/Papp (A-B)) of the test compound were calculated."}, "[2]": {"system": "MDCK cells stably transduced with MDR1 (MDCK-MDR1)", "assay": "In vitro permeability experiment, MDCK-MDR1", "details": "5 μM, 90 min", "description": "as §1"}, "[3]": {"assay": "In vitro stability experiment (HPLC purity of filtrate)", "type": "physicochemical", "description": "(§2) Preparation of a standard curve: 10.01 mg of sample was weighed out and placed in a volumetric flask, and the volume was brought to 10 mL with acetonitrile/water (v/v, 9/1) to prepare 1.001 mg/mL of standard solution; the standard solution was then serially diluted to 0.5005 mg/mL, 0.1001 mg/mL, 0.05005 mg/mL, 0.01001 mg/mL, and 0.001001 mg/mL to generate the standard curve, and a linear equation was fitted by taking the peak area of the sample as a vertical axis and the concentration as a horizontal axis. Solubility and stability test: 15 mg of sample was added to 3 mL of vehicle (FaSSIF, FeSSIF, SGF, or water) to prepare a corresponding suspension at a target concentration of 5 mg/mL. The prepared suspension was stirred on a shaker (800 rpm) at 37° C. for 0.5 h, and the suspension was then filtered. The filtrate was diluted with a diluent to a corresponding multiple so that the peak height could not exceed the standard curve, and the solubility and purity were detected using HPLC."}, "[4]": {"assay": "In vitro solubility experiment", "type": "physicochemical", "details": "thermodynamic from solid", "description": "as §2"}, "[5]": {"assay": "In vivo pharmacokinetic experiment", "set-up": "species or system CD-1 female mice", "details": "mice, oral administration 10 mg/kg", "description": "CD-1 female mice aged 7 to 10 weeks were intravenously administered and orally administered at a dose of 2 mg/kg and 10 mg/kg, respectively. The mice were fasted for at least 12 h before the administration and given food 4 h after the administration, and they were given ad libitum access to water during the experiment. On the day of the experiment, animals in the intravenous group were administered the corresponding compound by single injection via the tail vein at an administration volume of 10 mL/kg. Animals in the oral group were administered the corresponding compound by single intragastric injection at an administration volume of 10 mL/kg. The animals were weighed before administration, and the administration volume was calculated according to the body weight. The sample collection time was 0.083 h (injection group), 0.167 h, 0.5 h, 1 h, 2 h, 4 h, 8 h, and 24 h. About 200 μL of whole blood was collected through the submaxillary venous plexus at each time point and used to prepare plasma for concentration determination by high-performance liquid chromatography-tandem mass spectrometry (LC-MS/MS). All animals were euthanized with CO2 anesthesia after the PK samples were collected at the last time point. The plasma concentrations were processed using a non-compartmental model of Phoenix WinNonlin™ version 8.3 (Certara) pharmacokinetic software, and the pharmacokinetic parameters were calculated using a linear-log trapezoidal method."}, "[6]": {"details": "FaSSIF, initial pH 6.52, 37° C."}, "[7]": {"details": "FeSSIF, initial pH 4.98, 37° C."}}, "data": [{"smiles": "Cc1cc2c(C(N)=O)c(N)n(-c3c(C)c(O)cc4ccccc34)c2nc1C", "note": "[Compound 128]", "values": [{"measurement": "IC50", "setting": "Recombinant MYT1 protein", "result": "0.2 to 0.5", "unit": "µM"}]}, {"smiles": "Cc1cc2c(C(N)=O)c(N)n(-c3c(C)cc4c(c3C)NCC4)c2nc1C", "note": "[Compound 150]", "values": [{"measurement": "IC50", "setting": "MIA PaCa-2 cells; Homo sapiens, MIA PaCa-2, 72 h", "result": "> 10", "unit": "µM"}]}, {"smiles": "Cc1cc2c(C(N)=O)c(N)n(-c3c(C)cc4c(c3C)NCC4)c2nc1C", "note": "[Compound 151]", "values": [{"measurement": "IC50", "setting": "MIA PaCa-2 cells; 72 h", "result": "> 10", "unit": "µM"}]}, {"smiles": "Cc1cc2c(C(N)=O)c(N)n(-c3c(C)cc4cc[nH]c4c3C)c2nc1C", "note": "[Compound 153]", "values": [{"measurement": "IC50", "setting": "MIA PaCa-2 cells; Homo sapiens, MIA PaCa-2, 72 h", "result": "> 10", "unit": "µM"}]}, {"smiles": "COCCc1ccc(OCC(O)CNC(C)C)cc1", "note": "(stereo not drawn) [Metoprolol, reference compound]", "values": [{"measurement": "Papp Mean", "setting": "[1]; A-B", "result": "24.34 10^−6 cm · s^−1"}, {"measurement": "Papp Sample - 01", "setting": "[1]; A-B", "result": "26.48 10^−6 cm · s^−1"}, {"measurement": "Papp Sample - 02", "setting": "[1]; A-B", "result": "22.20 10^−6 cm · s^−1"}, {"measurement": "Papp Mean", "setting": "[1]; B-A", "result": "21.29 10^−6 cm · s^−1"}, {"measurement": "Papp Sample - 01", "setting": "[1]; B-A", "result": "18.61 10^−6 cm · s^−1"}, {"measurement": "Papp Sample - 02", "setting": "[1]; B-A", "result": "23.97 10^−6 cm · s^−1"}, {"measurement": "Papp Mean", "setting": "[2]; MDCK-MDR1, A-B", "result": "36.96 10^−6 cm · s^−1"}, {"measurement": "Papp Sample - 01", "setting": "[2]; MDCK-MDR1, A-B", "result": "37.59 10^−6 cm · s^−1"}, {"measurement": "Papp Sample - 02", "setting": "[2]; MDCK-MDR1, A-B", "result": "36.32 10^−6 cm · s^−1"}, {"measurement": "Papp Mean", "setting": "[2]; MDCK-MDR1, B-A", "result": "20.14 10^−6 cm · s^−1"}, {"measurement": "Papp Sample - 01", "setting": "[2]; MDCK-MDR1, B-A", "result": "20.11 10^−6 cm · s^−1"}, {"measurement": "Papp Sample - 02", "setting": "[2]; MDCK-MDR1, B-A", "result": "20.17 10^−6 cm · s^−1"}]}, {"smiles": "Cc1cc2c(C(N)=O)c(N)n(-c3c(C)ccc(O)c3C)c2nc1C", "note": "[RP-6306, reference compound]", "values": [{"measurement": "HPLC purity 0.5 h", "setting": "[3]; [6]", "result": "58.88 %, 220 nm"}, {"measurement": "HPLC purity 0.5 h", "setting": "[3]; [7]", "result": "74.51 %, 220 nm"}, {"measurement": "HPLC purity 0.5 h", "setting": "[3]; SGF, initial pH 1.2, 37° C.", "result": "98.18 %, 220 nm"}, {"measurement": "HPLC purity 0.5 h", "setting": "[3]; Water, initial pH 7.7, 37° C.", "result": "40.92 %, 220 nm"}, {"measurement": "solubility at 0.5 h", "setting": "[4]; simulated gastric fluid, SGF, initial pH 1.2, 37° C.", "result": 3860, "unit": "µg/mL"}, {"measurement": "solubility at 0.5 h", "setting": "[4]; [6]", "result": 49, "unit": "µg/mL"}, {"measurement": "solubility at 0.5 h", "setting": "[4]; [7]", "result": 182, "unit": "µg/mL"}, {"measurement": "solubility at 0.5 h", "setting": "[4]; Water, initial pH 7.7, 37° C.", "result": 13, "unit": "µg/mL"}, {"measurement": "half-life", "setting": "[5]; female, CD-1, mouse, plasma", "result": 1.58, "unit": "h"}, {"measurement": "F %", "setting": "[5]", "result": 54.7, "unit": "%"}, {"measurement": "IC50", "setting": "MIA PaCa-2 cells; Homo sapiens, MIA PaCa-2, 72 h", "result": 9.22, "unit": "µM"}]}]}
